Test results taken from patent publication US4450269A, “Mono-5-substituted-3-chloro-4H-1,2,6-thiadiazin-4-one antifungal agents” (FMC Corporation, priority 1980, dated 1984).
Where two headings read alike, the source gives them in different places.

Assays:
Phytophthora infestans = assay type: cell-based; settings: PI, 48 hours
Rhizoctonia solani = assay: Mycelial growth test; assay type: cell-based; settings: Rhizoctonia solani, 72 h, RS, read-out: Percent Fungus Growth Inhibition
Text: | RS = Rhizoctonia solani

Row | SMILES | Spore Germination Rating (Phytophthora infestans; 1.0 ppm) | Spore Germination Rating (Phytophthora infestans; 2.5 ppm) | Spore Germination Rating (Phytophthora infestans; 10 ppm) | Spore Germination Rating (Phytophthora infestans; 40 ppm) | inhibition at 5 ppm (Rhizoctonia solani) [%] | inhibition at 10 ppm (Rhizoctonia solani) [%] | inhibition at 20 ppm (Rhizoctonia solani) [%] | inhibition at 40 ppm (Rhizoctonia solani) [%]
1 | CS(=O)(=O)c1ccc(Oc2nsnc(Cl)c2=O)cc1 [Compound 41, 3-chloro-5-[(4-methylsulfonyl)phenoxy]-4H--1,2,6-thiadiazin-4-one] | 4 (80-100) | 2 (40-60) | 0 (0-10) | 0 (0-10) | 0 | 0 | 51 | 64
2 | O=C(OCc1ccccc1)Oc1ccc(Oc2nsnc(Cl)c2=O)cc1 [Compound 38, 3-chloro-5-[4-(phenylmethoxycarbonyloxy)phenoxyl]-4H-1,2,6-thiadiazin-4-one] | 4 (80-100) | 4 (80-100) | 4 (80-100) | 3 (60-80) | 0 | 0 | 7 | 33
3 | Cc1cccc(C)c1Oc1nsnc(Cl)c1=O [Compound 24, 3-chloro-5-(2,6-dimethylphenoxy)-4H--1,2,6-thiadiazin-4-one] | 4 (80-100) | 2 (40-60) | 1 (10-40) | 0 (0-10) | 20 | 64 | 82 | 100
4 | O=c1c(Cl)nsnc1Oc1ccc(Br)cc1 [Compound 15, 3-chloro-5-(4-bromophenoxy)-4H--1,2,6-thiadiazin-4-one] | 0 (0-10) | 1 (10-40) | 0 (0-10) | 0 (0-10) | 13 | 38 | 38 | 53
5 | O=c1c(Cl)nsnc1Oc1ccccc1Br [Compound 34, 3-chloro-5-(2-bromophenoxy)-4H-1,2,6,-thiadiazin-4-one] | 4 (80-100) | 1 (10-40) | 0 (0-10) | 0 (0-10) | 24 | 64 | 76 | 100
6 | Cc1cc(C)cc(Oc2nsnc(Cl)c2=O)c1 [Compound 25, 3-chloro-5-(3,5-dimethylphenoxy)-4H--1,2,6-thiadiazin-4-one] | 4 (80-100) | 1 (10-40) | 0 (0-10) | 0 (0-10) | 20 | 64 | 80 | 78
7 | CCOC(=O)c1ccc(Oc2nsnc(Cl)c2=O)cc1 [Compound 7, 3-chloro-5-(4-ethoxycarbonylphenoxy)-4H--1,2,6-thiadiazin-4-one] | 0 (0-10) | 0 (0-10) | 0 (0-10) | 0 (0-10) | 7 | 33 | 53 | 76
8 | Cc1cccc(Oc2nsnc(Cl)c2=O)c1 [Compound 21, 3-chloro-5-(3-methylphenoxy)-4H--1,2,6-thiadiazin-4-one] | 4 (80-100) | 1 (10-40) | 0 (0-10) | 0 (0-10) | 53 | 64 | 87 | 100
9 | N#CCc1ccc(Oc2nsnc(Cl)c2=O)cc1 [Compound 46, 3-chloro-5-[(4-cyanomethyl)-phenoxy]4H--1,2,6-thiadiazin-4-one] | 4 (80-100) | 1 (10-40) | 1 (10-40) | 0 (0-10) | 27 | 56 | 64 | 100
10 | O=c1c(Cl)nsnc1Oc1cc(Cl)cc(Cl)c1 [Compound 20, 3-chloro-5-(3,5-dichlorophenoxy)-4H--1,2,6-thiadiazin-4-one] | 0 (0-10) | 0 (0-10) | 0 (0-10) | 0 (0-10) | 51 | 58 | 76 | 78
11 | O=c1c(Cl)nsnc1Oc1cccc(C(F)(F)F)c1 [Compound 44, 3-chloro-5-[(3-trifluoromethyl)phenoxy]-4H--1,2,6-thiadiazin-4-one] | 2 (40-60) | 0 (0-10) | 0 (0-10) | 0 (0-10) | 82 | 80 | 96 | 100
